Article PMC4937658, “Effects of dalfampridine and its metabolites on cloned human potassium channels Kv 1.1, Kv 1.2, and Kv 1.4 expressed in human embryonic kidney cells” (Journal of Drug Assessment, 2013)
Structures can show the parent of a compound that is named as a salt.

Key:
Experiment in all cases: automated whole-cell patch clamp (PatchXpress), peak current
Type in all cases: cell-based
Kv 1.2 = biological target: T1, Kv 1.2 (Homo sapiens, UniProt P16389)
T1 construct: gene KCNA2; cDNA stably transfected in HEK293 cells; expressed alone (homotetramer)
Excerpt: automated whole-cell patch clamp (PatchXpress), peak current on Kv 1.2

Kv 1.4 = biological target: T2, Kv 1.4 (Homo sapiens, UniProt P22459)
T2 construct: gene KCNA4; cDNA stably transfected in HEK293 cells; expressed alone (homotetramer)
Excerpt: automated whole-cell patch clamp (PatchXpress), peak current on Kv 1.4

Kv 1.1 = biological target: T3, Kv 1.1 (Homo sapiens, UniProt Q09470)
T3 construct: gene KCNA1; cDNA stably transfected in HEK293 cells; expressed alone (homotetramer)
Excerpt: automated whole-cell patch clamp (PatchXpress), peak current on Kv 1.1

T2 sequence (P22459 whole entry): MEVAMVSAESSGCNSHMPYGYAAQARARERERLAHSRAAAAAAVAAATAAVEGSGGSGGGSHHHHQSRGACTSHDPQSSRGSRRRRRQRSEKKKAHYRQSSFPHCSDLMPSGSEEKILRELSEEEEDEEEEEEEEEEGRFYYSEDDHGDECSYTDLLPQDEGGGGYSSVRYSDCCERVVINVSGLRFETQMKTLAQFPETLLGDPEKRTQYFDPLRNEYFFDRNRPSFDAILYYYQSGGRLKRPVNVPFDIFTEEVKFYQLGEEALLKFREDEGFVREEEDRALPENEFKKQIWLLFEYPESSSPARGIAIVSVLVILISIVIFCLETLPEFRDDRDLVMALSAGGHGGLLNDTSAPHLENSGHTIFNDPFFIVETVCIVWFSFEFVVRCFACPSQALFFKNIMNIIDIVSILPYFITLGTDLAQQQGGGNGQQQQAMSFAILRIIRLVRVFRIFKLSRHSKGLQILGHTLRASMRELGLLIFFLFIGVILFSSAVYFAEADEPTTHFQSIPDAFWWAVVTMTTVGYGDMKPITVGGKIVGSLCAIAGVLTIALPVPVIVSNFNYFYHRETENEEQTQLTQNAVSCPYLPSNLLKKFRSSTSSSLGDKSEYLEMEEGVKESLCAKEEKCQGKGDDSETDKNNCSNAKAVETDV
T3 sequence (Q09470 whole entry): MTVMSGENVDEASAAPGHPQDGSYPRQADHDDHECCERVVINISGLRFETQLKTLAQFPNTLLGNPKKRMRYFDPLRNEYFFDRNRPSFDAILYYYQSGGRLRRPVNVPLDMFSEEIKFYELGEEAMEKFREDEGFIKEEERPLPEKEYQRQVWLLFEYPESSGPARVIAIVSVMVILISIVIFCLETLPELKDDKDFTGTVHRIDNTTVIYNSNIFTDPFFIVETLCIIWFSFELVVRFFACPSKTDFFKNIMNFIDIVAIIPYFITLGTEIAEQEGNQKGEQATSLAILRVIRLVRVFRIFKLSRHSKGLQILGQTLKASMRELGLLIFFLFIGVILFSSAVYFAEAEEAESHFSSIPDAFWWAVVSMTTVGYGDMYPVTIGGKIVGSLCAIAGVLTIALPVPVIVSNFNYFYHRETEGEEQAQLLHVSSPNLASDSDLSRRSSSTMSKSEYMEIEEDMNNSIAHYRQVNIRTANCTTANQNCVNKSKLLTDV
T1 sequence (P16389 whole entry): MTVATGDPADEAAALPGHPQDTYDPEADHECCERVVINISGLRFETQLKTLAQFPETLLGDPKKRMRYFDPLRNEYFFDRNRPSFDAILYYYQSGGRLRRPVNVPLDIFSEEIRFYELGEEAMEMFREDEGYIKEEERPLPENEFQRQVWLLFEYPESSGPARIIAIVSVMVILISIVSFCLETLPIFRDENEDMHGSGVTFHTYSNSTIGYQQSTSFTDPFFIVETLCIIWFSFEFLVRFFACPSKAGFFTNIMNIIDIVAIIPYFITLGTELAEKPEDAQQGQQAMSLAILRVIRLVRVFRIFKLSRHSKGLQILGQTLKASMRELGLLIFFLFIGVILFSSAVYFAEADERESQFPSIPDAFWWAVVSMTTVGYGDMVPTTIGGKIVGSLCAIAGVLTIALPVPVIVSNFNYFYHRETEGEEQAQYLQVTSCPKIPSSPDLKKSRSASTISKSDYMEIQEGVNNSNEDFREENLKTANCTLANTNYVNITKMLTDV

IC50 (Kv 1.2) [µM] | IC50 (Kv 1.4) [µM] | IC50 (Kv 1.1) [µM] | Structure (SMILES)
21400 | > 50000 | 30300 | Nc1ccncc1OS(=O)(=O)O [3-hydroxy-4-aminopyridine sulfate]
23700 | 23200 | 7890 | Nc1ccncc1O [3-hydroxy-4-aminopyridine]
